These results are taken from publication PMC8472965, “BmK86-P1, a New Degradation Peptide with Desirable Thermostability and Kv1.2 Channel-Specific Activity from Traditional Chinese Scorpion Medicinal Material” (Toxins, 2021).

One data set has as its target T1, hKv1.2-T383V (Homo sapiens, UniProt P16389, T383V).
T1 construct: expressed in transfected cells; host or cells: HEK293T
Nature of the data set: Whole-cell patch clamp, hKv1.2 channel mutant T383V. It counts as cell-based. Particulars: 100 nM peptide, HEK293T, mean ± S.E., n ≥ 3, SEM. As to the method: (§1) To determine the functional sites of the hKv1.2 channel responsible for the selectivity of BmK86-P1, six hKv1.2 mutants were obtained based on sequence differences between the pore regions of the hKv1.2 and hKv1.1 channels (Figure 4A). Then, the activities of 100 nM BmK86-P1 on these six mutant channels were tested. […] The other three mutant channels (hKv1.2-D352E, hKv1.2-R354A and hKv1.2-P359S) still kept similar sensitivities toward BmK86-P1 compared with the wild-type hKv1.2 channel (Figure 4H,I,K,N).
(§2) All potassium channel expression vectors were given by others or constructed by ourselves. HEK293T cells were cultured in Dulbecco’s modified Eagle medium (Gibco, Pittsburgh, PA, USA) with 10% fetal bovine serum and penicillin/streptomycin (100 units/mL) in a 5% CO2 incubator at 37 °C. Potassium channel expression vectors and pEGFP-N1 were co-transfected into HEK293T cells using TurboFect in vitro Transfection Reagent (Thermo Scientific, Waltham, MA, USA) according to the manufacturer’s instructions. The potassium currents were recorded after transfection for 1 to 3 days.
(§3) The channel currents were measured and recorded by whole-cell patch clamp technology according to previously published references. […] The channel currents were recorded at room temperature (~25 °C) using an EPC 10 patch clamp amplifier. […]
(Patch clamp records ionic current or voltage across a cell membrane.)

Another data set deals with rKv4.3 channel. In words: Whole-cell patch clamp, rKv4.3 channel overexpressed in HEK293T cells. The data set is classed as cell-based, rat. Particulars: 1 μM peptide, mean ± S.E., n ≥ 3, SEM. As to the method:
(§4) To investigate the electrophysiological activities of BmK86-P1, the whole-cell patch clamp technique was applied to test the effects of BmK86-P1 on multiple potassium channels. The hKv1.1, hKv1.2, hKv1.3, hKv1.6, hKv3.2, mKv4.1, rKv4.2, rKv4.3 and hERG channels were overexpressed in HEK293T cells, then the inhibitory effects of BmK86-P1 at 1 μM on these potassium channels were measured. […] To further investigate the affinity of BmK86-P1 inhibiting the hKv1.2 channel, a dose-dependent study was performed by examining the inhibitory effects of different concentrations of BmK86-P1.
(§5) All potassium channel expression vectors were given by others or constructed by ourselves. HEK293T cells were cultured in Dulbecco’s modified Eagle medium (Gibco, Pittsburgh, PA, USA) with 10% fetal bovine serum and penicillin/streptomycin (100 units/mL) in a 5% CO2 incubator at 37 °C. […] The potassium currents were recorded after transfection for 1 to 3 days.
as §3
(§6) The ClampFit (Molecular Devices, Sunnyvale, CA, USA) and SigmaPlot software ([…], Chicago, IL, USA) were used to analyze the recorded data. […]

The target of data set [1] is T2, hKv1.2-M3 chimeric channel (Homo sapiens, UniProt P16389, T383V/V381Y).
T2 construct: expressed in transfected cells; host or cells: HEK293T
In words: Whole-cell patch clamp, chimeric channel hKv1.2-M3 (turret or filter region of hKv1.2 substituted by that of hKv1.1). It counts as cell-based. Particulars: 100 nM peptide, HEK293T, mean ± S.E., n ≥ 3, SEM.
Source text: The turret and filter region of potassium channels have different effects on the toxin binding for different scorpion toxins. To investigate the importance of these two regions of potassium channels in interacting with BmK86-P1, another two channel chimeras (i.e., hKv1.2-M2 and hKv1.2-M3) were constructed, in which the turret or the filter region of the hKv1.2 channel was substituted by the equivalent region of the hKv1.1 channel.
as §2
The channel currents were measured and recorded by whole-cell patch clamp technology according to previously published references. The internal patch pipette solution and the bath solution were prepared as previously described. […] The channel currents were recorded at room temperature (~25 °C) using an EPC 10 patch clamp amplifier. […]

The next data set deals with T3, hERG channel (Homo sapiens, UniProt Q12809).
T3 construct: expressed in transfected cells; host or cells: HEK293T
It counts as cell-based. To be noted: 1 μM peptide; whole-cell patch clamp, HEK293T; mean ± S.E., n ≥ 3; SEM. The method, then:
as §4, §5, §3, §6

The subject of the next data set is Kv1.3 channel. Particulars: read-out: IC50, inhibition of the current of Kv1.3 channel; cited from earlier work. The source says:
The BmK86 toxin gene was first discovered from the venom gland cDNA library of Mesobuthus martensii Karsch. It encodes a signal peptide with 22 amino acid residues and a mature toxin with 35 residues (Figure 6A). The stretch of six amino acids in the N-terminus of BmK86 was thought to be a signal peptide rather than the N-terminal portion of the mature peptide. […] BmK86 could inhibit the c ...

The target of another data set is T4, hKv1.2-D352E (Homo sapiens, UniProt P16389, D352E).
T4 construct: expressed in transfected cells; host or cells: HEK293T
Nature of the data set: Whole-cell patch clamp, hKv1.2 channel mutant D352E. It counts as cell-based. Particulars: 100 nM peptide, HEK293T, mean ± S.E., n ≥ 3, SEM. The method, then:
as §1, §2, §3

Another data set has as its target T5, hKv1.2-Q357H (Homo sapiens, UniProt P16389, Q357H).
T5 construct: expressed in transfected cells; host or cells: HEK293T
Nature of the data set: Whole-cell patch clamp, hKv1.2 channel mutant Q357H. It counts as cell-based. To be noted: 100 nM peptide, HEK293T, mean ± S.E., n ≥ 3, SEM. The method, then: as §1, §2, §3

Broadly, the IC50 is the concentration that gives 50% inhibition.

Positions of bridges follow the written chain, without caps; N, C: chain ends. Residues, ends and D or L forms follow the SMILES beside them.

T4 sequence (P16389 whole entry D352E): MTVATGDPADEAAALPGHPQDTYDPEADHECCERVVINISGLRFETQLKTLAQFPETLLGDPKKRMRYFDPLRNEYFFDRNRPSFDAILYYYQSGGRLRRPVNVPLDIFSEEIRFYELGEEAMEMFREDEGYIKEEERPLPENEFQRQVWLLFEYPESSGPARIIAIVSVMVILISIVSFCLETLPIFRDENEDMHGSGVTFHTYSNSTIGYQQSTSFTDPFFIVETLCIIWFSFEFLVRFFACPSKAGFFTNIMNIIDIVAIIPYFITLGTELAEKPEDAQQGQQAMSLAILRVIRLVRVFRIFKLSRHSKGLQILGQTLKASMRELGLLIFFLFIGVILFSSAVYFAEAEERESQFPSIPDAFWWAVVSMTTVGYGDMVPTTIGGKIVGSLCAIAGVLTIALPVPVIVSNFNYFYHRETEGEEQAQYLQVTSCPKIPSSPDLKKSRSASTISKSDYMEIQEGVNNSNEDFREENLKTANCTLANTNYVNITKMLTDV
T2 sequence (P16389 whole entry V381Y/T383V): as the sequence (P16389 whole entry D352E) above, with E352D, V381Y, T383V counted along it
T1 sequence (P16389 whole entry T383V): as the sequence (P16389 whole entry D352E) above, with E352D, T383V counted along it
T3 sequence (Q12809 whole entry): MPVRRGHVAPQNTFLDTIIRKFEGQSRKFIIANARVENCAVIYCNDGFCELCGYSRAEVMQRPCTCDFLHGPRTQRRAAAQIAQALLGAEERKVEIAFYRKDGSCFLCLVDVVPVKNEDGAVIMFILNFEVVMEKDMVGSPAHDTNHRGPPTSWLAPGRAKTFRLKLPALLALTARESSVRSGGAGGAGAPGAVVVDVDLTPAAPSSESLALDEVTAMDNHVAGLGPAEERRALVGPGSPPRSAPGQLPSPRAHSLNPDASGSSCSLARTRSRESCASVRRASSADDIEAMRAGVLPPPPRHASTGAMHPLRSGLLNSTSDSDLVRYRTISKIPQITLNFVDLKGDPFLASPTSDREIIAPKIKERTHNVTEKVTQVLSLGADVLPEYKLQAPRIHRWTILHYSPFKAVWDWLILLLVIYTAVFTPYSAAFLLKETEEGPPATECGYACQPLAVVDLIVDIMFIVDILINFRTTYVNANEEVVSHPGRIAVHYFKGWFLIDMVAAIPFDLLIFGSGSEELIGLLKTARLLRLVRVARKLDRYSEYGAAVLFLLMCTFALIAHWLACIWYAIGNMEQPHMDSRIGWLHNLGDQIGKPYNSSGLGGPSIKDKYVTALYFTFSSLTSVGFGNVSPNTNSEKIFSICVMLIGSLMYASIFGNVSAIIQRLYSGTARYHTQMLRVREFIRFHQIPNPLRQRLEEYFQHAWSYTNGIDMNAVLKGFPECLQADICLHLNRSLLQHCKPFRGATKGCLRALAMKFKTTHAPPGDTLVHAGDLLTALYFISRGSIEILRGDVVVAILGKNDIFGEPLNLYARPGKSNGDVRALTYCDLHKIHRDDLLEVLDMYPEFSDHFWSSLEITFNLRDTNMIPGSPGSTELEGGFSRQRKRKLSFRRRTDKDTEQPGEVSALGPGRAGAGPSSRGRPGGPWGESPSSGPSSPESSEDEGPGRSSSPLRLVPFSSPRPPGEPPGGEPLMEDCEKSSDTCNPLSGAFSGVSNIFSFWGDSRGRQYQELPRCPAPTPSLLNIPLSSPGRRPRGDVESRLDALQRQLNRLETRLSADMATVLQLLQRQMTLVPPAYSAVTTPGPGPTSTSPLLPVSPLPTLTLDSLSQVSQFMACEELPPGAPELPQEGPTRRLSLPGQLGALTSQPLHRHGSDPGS
T5 sequence (P16389 whole entry Q357H): as the sequence (P16389 whole entry D352E) above, with E352D, Q357H counted along it

For `CC[C@H](C)[C@@H]1NC(=O)[C@@H]2CSSC[C@H](NC(=O)[C@H](C)N)C(=O)N[C@@H](CO)C(=O)N[C@@H](CCCCN)C(=O)N3CCC[C@H]3C(=O)N[C@H]3CSSC[C@H](NC(=O)[C@H](CCCNC(=N)N)NC(=O)CNC(=O)[C@H](CC(N)=O)NC1=O)C(=O)N[C@@H](Cc1c[nH]cn1)C(=O)N[C@H](C(=O)N[C@@H](Cc1ccc(O)cc1)C(=O)N[C@@H](Cc1ccc(O)cc1)C(=O)O)CSSC[C@H](NC(=O)[C@H](Cc1ccc(O)cc1)NC(=O)[C@H](CCCCN)NC(=O)[C@H](CCCNC(=N)N)NC3=O)C(=O)N[C@@H]([C@@H](C)CC)C(=O)N[C@@H](CC(=O)O)C(=O)N[C@@H](CCCCN)C(=O)NCC(=O)N[C@@H](C)C(=O)N[C@@H](CCCNC(=N)N)C(=O)N[C@@H](CC(N)=O)C(=O)NCC(=O)N[C@@H](CCCCN)C(=O)N2` [BmK86-P1] (H-ACSKPCRKYCIDKGARNGKCINGRCHCYY-OH; disulfide 2-20, 6-25, 10-27 (inferred); N-terminus and C-terminus assumed), the “inhibition of hKv1.2-T383V channel currents” value against hKv1.2-T383V is on record as 32.1 ± 2.8%. Further, the “inhibition of Kv4.3 channel currents” value in the data set with rKv4.3 channel is 4.9 ± 0.3%. Besides, the “inhibition of hKv1.2-M3 chimeric channel currents” value in data set [1] is 1.5 ± 0.6%. Besides, the “inhibition of hERG channel currents” value on hERG channel is on record as 13.3 ± 3.3%. In addition, in the data set with Kv1.3 channel, the IC50 is 597 ± 114 nM. Also, the “inhibition of hKv1.2-D352E channel currents” value against hKv1.2-D352E turned out to be 74.8 ± 1.2%. Moreover, the “inhibition of hKv1.2-Q357H channel currents” value on hKv1.2-Q357H is listed as 37.3 ± 1.5%.
